Laboratory results taken from US4826982A, “Quinolonecarboxylic acid derivatives” (Kyorin Pharmaceutical Co., Ltd., priority 1985, dated 1989).
Values after ≈ are worked out from the molar mass of the structure shown. Like-named read-outs stand apart in the source and are kept apart here.

Assays:
[1] = test system: Peptostreptococcus anaerobius KYA 27337; experiment: Antibacterial spectrum, MIC; type: cell-based
[2] = test system: Propionibacterium acens 11828; experiment: Antibacterial spectrum, MIC; type: cell-based
K. pneumoniae 1-220S = experiment: Antibacterial spectrum, MIC; type: cell-based; conditions: Klebsiella pneumoniae, 1220S; 10^6 cells/ml; Gram -; standard strain
Description: (§1) In vitro antibacterial activity (standard strains)
(§2) Organism (10^6 cells/ml)

[3] = test system: Fusobacterium necrophorum S-45; experiment: Antibacterial spectrum, MIC; type: cell-based; conditions: S45, 10^6 cells/ml, Gram -, standard strain
Description: as §1, §2

B. fragilis 0558 = experiment: Antibacterial spectrum, MIC; type: cell-based; conditions: Bacteroides fragilis, 10^6 cells/ml, Gram -, standard strain
Description: as §1, §2

P. mirabilis IID 994 = experiment: Antibacterial spectrum, MIC; type: cell-based; conditions: Proteus mirabilis, IID994; 10^6 cells/ml; Gram -; standard strain
Description: as §1, §2

[4] = test system: Proteus vulgaris IFO 3167; experiment: Antibacterial spectrum, MIC; type: cell-based; conditions: IFO3167, 10^6 cells/ml, Gram -, standard strain
Description: as §1, §2

[5] = test system: Salmonella enteritidis IID 604; experiment: Antibacterial spectrum, MIC; type: cell-based; conditions: Salmonella enterica; 10^6 cells/ml; Gram -; standard strain
Description: as §1, §2

B. fragilis 25285 = experiment: Antibacterial spectrum, MIC; type: cell-based; conditions: Bacteroides fragilis, 10^6 cells/ml, Gram -, standard strain
Description: as §1, §2

[6] = test system: Serratia marcescens IID 618; experiment: Antibacterial spectrum, MIC; type: cell-based; conditions: IID618, 10^6 cells/ml, Gram -, standard strain
Description: as §1, §2

[7] = test system: Staphylococcus aureus 209 P; experiment: Antibacterial spectrum, MIC; type: cell-based; conditions: 10^6 cells/ml, Gram +, standard strain
Description: as §1, §2

[8] = test system: Streptococcus pyogenes (S-8); experiment: Antibacterial spectrum, MIC; type: cell-based; conditions: 10^6 cells/ml, Gram +, standard strain
Description: as §1, §2

[9] = test system: Alcaligenes faecalis 0114002; experiment: Antibacterial spectrum, MIC; type: cell-based; conditions: 10^6 cells/ml, Gram -, standard strain
Description: as §1, §2

[10] = test system: S. aureus IID 670 (Terajima); experiment: Antibacterial spectrum, MIC; type: cell-based; conditions: Staphylococcus aureus, IID670; 10^6 cells/ml; Gram +; standard strain
Description: as §1, §2

S. pneumoniae IID 552 = experiment: Antibacterial spectrum, MIC; type: cell-based; conditions: Streptococcus pneumoniae, IID552; 10^6 cells/ml; Gram +; standard strain
Description: as §1, §2

Shigella sonnei IID 969 = experiment: Antibacterial spectrum, MIC; type: cell-based; conditions: IID969, 10^6 cells/ml, Gram -, standard strain
Description: as §1, §2

B. distasonis 8503 = experiment: Antibacterial spectrum, MIC; type: cell-based; conditions: Parabacteroides distasonis, 10^6 cells/ml, Gram -, standard strain
Description: as §1, §2

[11] = test system: Escherichia coli NIHJ JC-2; experiment: Antibacterial spectrum, MIC; type: cell-based; conditions: NIHJJC2, 10^6 cells/ml, Gram -, standard strain
Description: as §1, §2

[12] = test system: Klebsiella pneumoniae KY(GN)6445; experiment: Antibacterial spectrum, MIC; type: cell-based; conditions: 10^6 cells/ml, Gram -, standard strain
Description: as §1, §2

E. coli ATCC l0536 = experiment: Antibacterial spectrum, MIC; type: cell-based; conditions: Escherichia coli, ATCCL0536
Description: as §1, §2

[13] = test system: Acinetobacter anitratus IID 876; experiment: Antibacterial spectrum, MIC; type: cell-based; conditions: Acinetobacter calcoaceticus, IID876; 10^6 cells/ml; Gram -; standard strain
Description: as §1, §2

S. epidermidis IID 866 = experiment: Antibacterial spectrum, MIC; type: cell-based; conditions: Staphylococcus epidermidis, IID866; 10^6 cells/ml; Gram +; standard strain
Description: as §1, §2

[14] = test system: Enterobacter cloacae IID 977; experiment: Antibacterial spectrum, MIC; type: cell-based; conditions: IID977, 10^6 cells/ml, Gram -, standard strain
Description: as §1, §2

E. faecalis IID 682 = experiment: Antibacterial spectrum, MIC; type: cell-based; conditions: Enterococcus faecalis, IID682; 10^6 cells/ml; Gram +; standard strain
Description: as §1, §2

[15] = test system: Citrobacter freundii IID 976; experiment: Antibacterial spectrum, MIC; type: cell-based; conditions: IID976, 10^6 cells/ml, Gram -, standard strain
Description: as §1, §2

Pst. micros UPI 5464-1 = experiment: Antibacterial spectrum, MIC; conditions: Parvimonas micra, UPI54641
[16] = test system: Eubacterium lentum GAI 5242; experiment: microbe, parasite or virus in culture; conditions: Eggerthella lenta, GAI5242
[17] = test system: Clostridium perfringens KYA 13123; experiment: microbe, parasite or virus in culture; conditions: KYA13123
P. aeruginosa IFO 12689 = experiment: microbe, parasite or virus in culture; conditions: Pseudomonas aeruginosa, IFO12689
S. pyogenes IID 692 = experiment: microbe, parasite or virus in culture; conditions: Streptococcus pyogenes, IID692
F. varium KYA 8501 = experiment: Antibacterial spectrum, MIC; type: cell-based; conditions: Fusobacterium varium, KYA8501
[18] = test system: Pseudomonas aeruginosa V-1; experiment: Antibacterial spectrum, MIC; conditions: V1
[19] = test system: Peptococcus magnus KY 017; experiment: microbe, parasite or virus in culture; conditions: Finegoldia magna, KY017
[20] = test system: Yersinia enterocolitica IID 981; experiment: microbe, parasite or virus in culture; type: cell-based; conditions: IID981
[21] = test system: Morganella morganii IID 602; experiment: Antibacterial spectrum, MIC; type: cell-based; conditions: IID602
C. ramosum = experiment: Antibacterial spectrum, MIC; type: cell-based; conditions: Thomasclavelia ramosa; 10^6 cells/ml; Gram +; standard strain; read-out: MIC
[22] = test system: B. thetaiotaomicron (0661); experiment: Antibacterial spectrum, MIC; type: cell-based; conditions: Bacteroides thetaiotaomicron; 10^6 cells/ml; Gram -; standard strain; read-out: MIC
[23] = test system: Bacillus subtilis PCI 219; experiment: Antibacterial spectrum, MIC by method recommended by Japan Society of Chemotherapy; type: cell-based; conditions: PCI219, 10^6 cells/ml, Gram +, standard strain
Description: as §1, §2

[24] = test system: Bacteroides fragilis GM 7000; experiment: Antibacterial spectrum, MIC; conditions: GM7000
[25] = test system: Veillonella parvula KYA 10790; experiment: Antibacterial spectrum, MIC; conditions: KYA10790

| Compound | MIC (K. pneumoniae 1-220S) [µg/mL] | MIC [3] [µg/mL] | MIC (B. fragilis 0558) [µg/mL] | MIC (P. mirabilis IID 994) [µg/mL] | MIC [4] [µg/mL] | MIC [5] [µg/mL] | MIC (B. fragilis 25285) [µg/mL] | MIC [6] [µg/mL] | MIC [7] [µg/mL] | MIC [8] [µg/mL] | MIC [9] [µg/mL] | MIC [10] [µg/mL] | MIC (S. pneumoniae IID 552) [µg/mL] | MIC (Shigella sonnei IID 969) [µg/mL] | MIC (B. distasonis 8503) [µg/mL] | MIC [11] [µg/mL] | MIC [12] [µg/mL] | MIC (E. coli ATCC l0536) [µg/mL] | MIC [13] [µg/mL] | MIC (S. epidermidis IID 866) [µg/mL] | further results |
| --- | --- | --- | --- | --- | --- | --- | --- | --- | --- | --- | --- | --- | --- | --- | --- | --- | --- | --- | --- | --- | --- |
| CC1CN(c2c(F)cc3c(=O)c(C(=O)O)cn(C4CC4)c3c2Br)CCN1.Cl (centres unmarked) [Exp. 18, 8-Bromo-1-cyclopropyl-6-fluoro-1,4-dihydro-7-(3-methyl-1-piperazinyl)-4-oxo-3-quinolinecarboxylic acid hydrochloride] | 0.1 | 0.78 | 0.39 | 0.025 | 0.025 | 0.05 | 0.39 | 0.1 | 0.1 | 0.78 | 0.39 | 0.2 | 0.78 | 0.025 | 1.56 | 0.0125 | 0.05 | 0.025 | 0.05 | 0.2 | MIC ([1]; KYA27337, 10^6 cells/ml, Gram +, standard strain, read-out: MIC): 1.56 µg/mL; MIC ([2]; 10^6 cells/ml, Gram +, standard strain, read-out: MIC): 6.25 µg/mL; MIC [14]: 0.1 µg/mL; MIC (E. faecalis IID 682): 0.78 µg/mL; MIC [15]: 0.05 µg/mL; MIC (Pst. micros UPI 5464-1): 0.39 µg/mL; MIC [16]: 0.39 µg/mL; MIC [17]: 0.78 µg/mL; MIC (P. aeruginosa IFO 12689): 3.13 µg/mL; MIC (S. pyogenes IID 692): 0.78 µg/mL; MIC (F. varium KYA 8501): 3.13 µg/mL; MIC [18]: 0.39 µg/mL; MIC [19]: 0.39 µg/mL; MIC [20]: 0.1 µg/mL; MIC [21]: 0.1 µg/mL; MIC (C. ramosum): 6.25 µg/mL; MIC [22]: 1.56 µg/mL; MIC [23]: 0.05 µg/mL; MIC [24]: 0.78 µg/mL; MIC [25]: 0.39 µg/mL |
| CC1COc2c(N3CCN(C)CC3)c(F)cc3c(=O)c(C(=O)O)cn1c23 (centres unmarked) [OFLX, ofloxacin, reference compound] | 0.2 (≈ 0.553 µM) | 1.56 (≈ 4.32 µM) | 1.56 (≈ 4.32 µM) | 0.05 (≈ 0.138 µM) | 0.05 (≈ 0.138 µM) | 0.1 (≈ 0.277 µM) | 1.56 (≈ 4.32 µM) | 0.1 (≈ 0.277 µM) | 0.2 (≈ 0.553 µM) | 1.56 (≈ 4.32 µM) | 0.78 (≈ 2.16 µM) | 0.39 (≈ 1.08 µM) | 1.56 (≈ 4.32 µM) | 0.05 (≈ 0.138 µM) | 6.25 (≈ 17.3 µM) | ≤ 0.025 | 0.05 (≈ 0.138 µM) | 0.05 (≈ 0.138 µM) | 0.2 (≈ 0.553 µM) | 0.39 (≈ 1.08 µM) | MIC ([1]; KYA27337): 3.13 µg/mL (≈ 8.66 µM); MIC [2]: 12.5 µg/mL (≈ 34.6 µM); MIC [14]: 0.1 µg/mL (≈ 0.277 µM); MIC (E. faecalis IID 682): 1.56 µg/mL (≈ 4.32 µM); MIC [15]: 0.1 µg/mL (≈ 0.277 µM); MIC (Pst. micros UPI 5464-1): 0.78 µg/mL (≈ 2.16 µM); MIC [16]: 0.78 µg/mL (≈ 2.16 µM); MIC [17]: 0.78 µg/mL (≈ 2.16 µM); MIC (P. aeruginosa IFO 12689): 3.13 µg/mL (≈ 8.66 µM); MIC (S. pyogenes IID 692): 3.13 µg/mL (≈ 8.66 µM); MIC (F. varium KYA 8501; 10^6 cells/ml, Gram -, standard strain, read-out: MIC): 12.5 µg/mL (≈ 34.6 µM); MIC [18]: 0.39 µg/mL (≈ 1.08 µM); MIC [19]: 0.78 µg/mL (≈ 2.16 µM); MIC [20]: 0.2 µg/mL (≈ 0.553 µM); MIC [21]: 0.1 µg/mL (≈ 0.277 µM); MIC (C. ramosum): 12.5 µg/mL (≈ 34.6 µM); MIC [22]: 6.25 µg/mL (≈ 17.3 µM); MIC [23]: 0.1 µg/mL (≈ 0.277 µM); MIC [24]: 3.13 µg/mL (≈ 8.66 µM); MIC [25]: 0.78 µg/mL (≈ 2.16 µM) |
